Results taken from ChEMBL document CHEMBL1124120, “Mapping of the beta 2-adrenoceptor on Chang liver cells. Differences between high- and low-affinity receptor states” (J Med Chem, 1988).

Legend:
[1] = biological target: Beta-2 adrenergic receptor (Bos taurus) (UniProt Q28044); conditions: Muscle tissue
Description: Change in Gibb's free energy at Low affinity beta-2-adrenoceptor in the membranes of bovine skeletal muscle preparation

[2] = biological target: Beta-2 adrenergic receptor (Homo sapiens) (UniProt P07550)
Description: Change in Gibb's free energy at Low affinity beta-2-adrenoceptor in the Chang living cells

[3] = biological target: Beta-2 adrenergic receptor (Homo sapiens) (UniProt P07550); remark: listed apart in the source
Description: Change in Gibb's free energy at High affinity beta2- adrenoceptor in Chang living cells.

Chain of Beta-2 adrenergic receptor (Bos taurus) (Q28044 whole entry, looked up): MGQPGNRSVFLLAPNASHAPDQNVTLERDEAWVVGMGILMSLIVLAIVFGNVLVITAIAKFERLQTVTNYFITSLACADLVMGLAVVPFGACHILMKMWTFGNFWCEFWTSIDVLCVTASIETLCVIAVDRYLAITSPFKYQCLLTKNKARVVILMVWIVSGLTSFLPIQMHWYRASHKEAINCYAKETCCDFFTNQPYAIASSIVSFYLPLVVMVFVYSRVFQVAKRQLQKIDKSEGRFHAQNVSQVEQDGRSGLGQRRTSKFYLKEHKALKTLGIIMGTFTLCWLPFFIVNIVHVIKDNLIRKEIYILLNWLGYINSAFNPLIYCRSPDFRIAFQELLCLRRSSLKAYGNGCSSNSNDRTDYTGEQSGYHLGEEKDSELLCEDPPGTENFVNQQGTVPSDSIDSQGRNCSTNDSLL
Chain of Beta-2 adrenergic receptor (Homo sapiens) (P07550 whole entry, looked up): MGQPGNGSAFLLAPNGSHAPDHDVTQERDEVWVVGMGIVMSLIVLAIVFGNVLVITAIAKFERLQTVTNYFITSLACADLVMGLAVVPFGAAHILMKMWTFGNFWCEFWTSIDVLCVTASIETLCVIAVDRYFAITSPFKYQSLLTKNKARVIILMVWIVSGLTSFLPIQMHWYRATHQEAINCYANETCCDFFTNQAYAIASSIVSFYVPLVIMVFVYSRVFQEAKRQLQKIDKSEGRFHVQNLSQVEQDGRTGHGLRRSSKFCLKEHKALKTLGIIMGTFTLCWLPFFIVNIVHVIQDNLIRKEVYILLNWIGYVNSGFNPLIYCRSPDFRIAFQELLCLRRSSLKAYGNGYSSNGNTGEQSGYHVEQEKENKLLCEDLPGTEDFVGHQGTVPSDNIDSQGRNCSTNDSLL

Row | Structure (SMILES) | -Delta G [1] | -Delta G [2] | -Delta G [3]
1 | C=CCc1ccccc1OCC(O)CNC(C)C (stereo not given) | 13.3 |  | 
2 | C=CCc1ccccc1OCC(O)CNCC(C)(C)N (stereo not given) |  | 9.54 | 
3 | CC(C)(C)NCC(O)c1ccccc1Cl (stereo not given) |  | 9.17 | 
4 | CC(C)NCC(O)COc1cccc2[nH]ccc12 (stereo not given) |  | 12.8 | 
5 | CCCc1ccccc1OCC(O)CNC(C)C (stereo not given) | 13.1 | 12.9 | 
6 | CNC[C@H](O)c1ccc(O)c(O)c1 |  | 6.92 | 10.1
7 | NC[C@H](O)c1ccc(O)c(O)c1 |  | 6 | 8.64
8 | CC(C)(C)NCC(O)COc1cccc2[nH]c(C#N)c(I)c12 (racemic) |  | 15.2 | 
9 | CC(C)(C)NCC(O)c1cc(Cl)c(N)c(Cl)c1 (racemic) | 11 |  | 
10 | CC(C)(C)NCC(O)c1cc(Cl)c(O)c(Cl)c1 (racemic) | 10.5 | 11.1 | 
11 | CC(C)(C)NCC(O)c1cc(O)cc(O)c1 (racemic) | 8.13 |  | 
12 | CC(C)(C)NCC(O)c1ccc(O)c(C(N)=O)c1 (racemic) |  | 9.54 | 11.2
13 | CC(C)(C)NCC(O)c1ccc(O)c(CO)c1 (racemic) | 9.34 |  | 
14 | CC(C)(C)NCC(O)c1ccc(O)c(N)c1 (racemic) | 8.5 | 7.73 | 9.69
15 | CC(C)(C)NCC(O)c1ccc(O)c(O)c1 (racemic) | 9.29 | 8.5 | 11.7
16 | CC(C)(N)CNCC(O)COc1cccc2[nH]ccc12 (racemic) |  | 10.1 | 
17 | CC(C)NCC(O)c1cc(Cl)c(N)c(Cl)c1 (racemic) | 10.7 | 9.08 | 11.1
18 | CC(C)NCC(O)c1cc(O)cc(O)c1 (racemic) |  | 7.19 | 10.7
19 | CC(C)NCC(O)c1ccc(NS(C)(=O)=O)cc1 (racemic) | 9.32 |  | 
20 | CC(C)NCC(O)c1ccc(O)c(CO)c1 (racemic) |  | 7.41 | 9.6
21 | CC(C)NCC(O)c1ccc(O)c(N)c1 (racemic) | 7.93 | 7.17 | 9.13
22 | CC(C)NCC(O)c1ccc(O)cc1 (racemic) |  |  | 9.76
23 | CC(C)NCC(O)c1ccc([N+](=O)[O-])cc1 (racemic) |  | 8.23 | 
24 | CC(C)NCC(O)c1ccc2ccccc2c1 (racemic) | 10.1 |  | 
25 | CC(C)NCC(O)c1cccc(O)c1 (racemic) | 9 | 7.05 | 
26 | CC(C)NC[C@H](O)COc1ccc(O)cc1 (racemic) | 8.9 | 9.76 | 
27 | CC(Cc1ccc(O)cc1)NCC(O)c1cc(O)cc(O)c1 (racemic) |  | 8.28 | 
28 | CNc1cc(C(O)CNC(C)(C)C)ccc1O (racemic) |  | 9.39 | 10.5
29 | Cc1cc(C)cc(OCC(O)CNC(C)C)c1 (racemic) | 11.8 | 10.4 | 
30 | Cc1cccc(OCC(O)CNC(C)C)c1 (racemic) | 10.9 | 11.4 | 
